Experimental findings from ChEMBL document CHEMBL3046342, “Synthesis of steroidal thiazolidinones as antibacterial agents based on the in vitro and quantum chemistry calculation” (2013) are described below.

As a reminder, the MIC is the smallest concentration in the dilution series that meets the test's criterion for growth inhibition.

Holding throughout (assay type): functional
For assay [1], the system named is Staphylococcus aureus. The experiment in a line: Antibacterial activity against Staphylococcus aureus ATCC 13150 assessed as growth inhibition at 10 to 100 ug/uL after 18 hr by disk diffusion method. In general terms: A growth-free zone around the sample is the usual read-out of agar diffusion tests.
The test system of assay [2] is Escherichia coli. The experiment in a line: Antibacterial activity against Escherichia coli ATCC 49696 assessed as growth inhibition at 10 to 100 ug/uL after 18 hr by disk diffusion method.
Assay [3] concerns Streptococcus pyogenes. As to the kind of experiment: Antibacterial activity against Streptococcus pyogenes ATCC 12384 assessed as growth inhibition at 10 to 100 ug/uL after 18 hr by disk diffusion method.
Assay [4] relates to Salmonella typhimurium. As to the kind of experiment: Antibacterial activity against Salmonella enterica subsp. enterica serovar Typhimurium ATCC 13311 assessed as growth inhibition at 10 to 100 ug/uL after 18 hr by disk diffusion method.
Assay [5] relates to Staphylococcus aureus. As to the kind of experiment: Antibacterial activity against Staphylococcus aureus ATCC 13150 assessed as growth inhibition after 18 hr by microbroth dilution method. Conditions: ATCC 13150, 18 h. (In general: In broth dilution the organism is exposed to a series of concentrations in liquid medium.)
Assay [6] has as its system Salmonella typhimurium. The experiment in a line: Antibacterial activity against Salmonella enterica subsp. enterica serovar Typhimurium ATCC 13311 assessed as growth inhibition after 18 hr by microbroth dilution method. Conditions: ATCC 13311, 18 h.
Assay [7] concerns Streptococcus pyogenes. The experiment in a line: Antibacterial activity against Streptococcus pyogenes ATCC 12384 assessed as growth inhibition after 18 hr by microbroth dilution method. Conditions: ATCC 12384, 18 h.
Assay [8] concerns Escherichia coli. The experiment in a line: Antibacterial activity against Escherichia coli ATCC 49696 assessed as growth inhibition after 18 hr by microbroth dilution method. The following applies: ATCC 49696, 18 h.
In assay [9] the test system is Streptococcus pyogenes. As to the kind of experiment: Antibacterial activity against Streptococcus pyogenes ATCC 12384 assessed as growth inhibition at 30 ug/disk after 18 hr by disk diffusion method. The following applies: ATCC 12384, 18 h, read-out: IZ.
The test system of assay [10] is Staphylococcus aureus. As to the kind of experiment: Antibacterial activity against Staphylococcus aureus ATCC 13150 assessed as growth inhibition at 30 ug/disk after 18 hr by disk diffusion method. Conditions: ATCC 13150, 18 h, read-out: IZ.
Assay [11] deals with Escherichia coli. The experiment in a line: Antibacterial activity against Escherichia coli ATCC 49696 assessed as growth inhibition at 30 ug/disk after 18 hr by disk diffusion method. The following applies: ATCC 49696, 18 h, read-out: IZ.
The test system of assay [12] is Salmonella typhimurium. As to the kind of experiment: Antibacterial activity against Salmonella enterica subsp. enterica serovar Typhimurium ATCC 13311 assessed as growth inhibition at 30 ug/disk after 18 hr by disk diffusion method. Conditions: ATCC 13311, 18 h, read-out: IZ.

Converted amounts (≈) assume the structure as drawn.

Consider `CC(=O)O[C@H]1CC[C@@]2(C)C(C1)/C(=N/NC(=S)NC1CCCCC1)C[C@H]1[C@@H]3CC[C@H]([C@H](C)CCCC(C)C)[C@@]3(C)CC[C@@H]12` (some centres undefined), for which the “inhibition zone (IZ)” value was 11.6 mm in the assay with Staphylococcus aureus [1], 13.6 mm in the assay on Escherichia coli [2], 12.2 mm in the assay with Streptococcus pyogenes [3] and 10.6 mm with Salmonella typhimurium [4].
Taken in the same sequence, the figures for `CC(C)CCC[C@@H](C)[C@H]1CC[C@H]2[C@@H]3C/C(=N\NC(=S)NC4CCCCC4)C4C[C@@H](Cl)CC[C@]4(C)[C@H]3CC[C@]12C` (some centres undefined) were 11.2 mm, 11.4 mm, 10.5 mm and 11.5 mm.
In the case of `CC(C)CCC[C@@H](C)[C@H]1CC[C@H]2[C@@H]3C/C(=N\NC(=S)NC4CCCCC4)C4CCCC[C@]4(C)[C@H]3CC[C@]12C` (some centres undefined), the “inhibition zone (IZ)” value with Staphylococcus aureus [1] stood at 9.6 mm; in the assay on Escherichia coli [2] it was 11.6 mm; in the assay on Streptococcus pyogenes [3], 9.8 mm; in the assay with Salmonella typhimurium [4], 10.6 mm.
Take `CC(=O)O[C@H]1CC[C@@]2(C)C(C1)/C(=N/N=C1\SCC(=O)N1C1CCCCC1)C[C@H]1[C@@H]3CC[C@H]([C@H](C)CCCC(C)C)[C@@]3(C)CC[C@@H]12` (some centres undefined): the “inhibition zone (IZ)” value was 18.8 mm in the assay on Staphylococcus aureus [1], 20.8 mm with Escherichia coli [2], 21.6 mm in the assay on Streptococcus pyogenes [3] and 19.2 mm in the assay with Salmonella typhimurium [4]. Moreover, the MIC worked out at 32 µg/mL (≈ 50 µM) in the assay with Staphylococcus aureus [5], 32 µg/mL (≈ 50 µM) in the assay with Salmonella typhimurium [6], 64 µg/mL (≈ 100 µM) in the assay with Streptococcus pyogenes [7] and 32 µg/mL (≈ 50 µM) with Escherichia coli [8].
`CC(C)CCC[C@@H](C)[C@H]1CC[C@H]2[C@@H]3C/C(=N\N=C4/SCC(=O)N4C4CCCCC4)C4C[C@@H](Cl)CC[C@]4(C)[C@H]3CC[C@]12C` (some centres undefined): the “inhibition zone (IZ)” value in the assay on Staphylococcus aureus [1] came out at 20.6 mm; in the assay with Escherichia coli [2], 22.8 mm; with Streptococcus pyogenes [3], 21.7 mm; with Salmonella typhimurium [4] it was 19.6 mm. Besides, the MIC was determined as 64 µg/mL (≈ 104 µM) with Staphylococcus aureus [5], 32 µg/mL (≈ 51.9 µM) in the assay with Salmonella typhimurium [6], 32 µg/mL (≈ 51.9 µM) in the assay on Streptococcus pyogenes [7] and 32 µg/mL (≈ 51.9 µM) with Escherichia coli [8].
With `CC(C)CCC[C@@H](C)[C@H]1CC[C@H]2[C@@H]3C/C(=N\N=C4/SCC(=O)N4C4CCCCC4)C4CCCC[C@]4(C)[C@H]3CC[C@]12C` (some centres undefined), the “inhibition zone (IZ)” value in the assay on Staphylococcus aureus [1] came to 13.8 mm; with Escherichia coli [2], 14 mm; with Streptococcus pyogenes [3] it was 14.2 mm; in the assay on Salmonella typhimurium [4], 13.2 mm. Further, the MIC is 64 µg/mL (≈ 110 µM) with Staphylococcus aureus [5], 512 µg/mL (≈ 880 µM) with Salmonella typhimurium [6], 128 µg/mL (≈ 220 µM) in the assay with Streptococcus pyogenes [7] and 128 µg/mL (≈ 220 µM) with Escherichia coli [8].
As for `CC1(C)S[C@@H]2[C@H](NC(=O)[C@H](N)c3ccc(O)cc3)C(=O)N2[C@H]1C(=O)O` [AMOXICILLIN], the minimum inhibitory concentration (MIC) with Staphylococcus aureus [5], in the assay with Salmonella typhimurium [6], in the assay on Streptococcus pyogenes [7] and in the assay on Escherichia coli [8] was 32 µg/mL (≈ 87.6 µM) in each case. Moreover, the zone of inhibition at 30 µg/disc with Streptococcus pyogenes [9] came out at 18.2 mm; in the assay with Staphylococcus aureus [10] it was 17 mm; with Escherichia coli [11] it was 20 mm; in the assay on Salmonella typhimurium [12] it was 17.2 mm.
